Source: ChEMBL document CHEMBL5579839, “Discovery of new cyclopropane sulfonamide derivatives as EGFR inhibitors to overcome C797S-mediated resistance and EGFR double mutation” (Eur J Med Chem, 2024)
Active and inactive are the calls of the source. The rule behind the calls is not given here.

Columns and labels:
BaF3 [1] = assay: Inhibition of cell invasion in mouse BaF3 cells harboring EGFR L858R/T790M/C797S mutant by transwell assay; assay type: functional, cell-based
[2] = target: Epidermal growth factor receptor (Homo sapiens, UniProt P00533, C797S/EX19DEL/T790M); assay: Inhibition of EGFR C797S/T790M/Del19 mutant (unknown origin)
Sequence of Epidermal growth factor receptor (Homo sapiens, UniProt P00533, C797S/EX19DEL/T790M) (P00533 whole entry, looked up, stated change not applied): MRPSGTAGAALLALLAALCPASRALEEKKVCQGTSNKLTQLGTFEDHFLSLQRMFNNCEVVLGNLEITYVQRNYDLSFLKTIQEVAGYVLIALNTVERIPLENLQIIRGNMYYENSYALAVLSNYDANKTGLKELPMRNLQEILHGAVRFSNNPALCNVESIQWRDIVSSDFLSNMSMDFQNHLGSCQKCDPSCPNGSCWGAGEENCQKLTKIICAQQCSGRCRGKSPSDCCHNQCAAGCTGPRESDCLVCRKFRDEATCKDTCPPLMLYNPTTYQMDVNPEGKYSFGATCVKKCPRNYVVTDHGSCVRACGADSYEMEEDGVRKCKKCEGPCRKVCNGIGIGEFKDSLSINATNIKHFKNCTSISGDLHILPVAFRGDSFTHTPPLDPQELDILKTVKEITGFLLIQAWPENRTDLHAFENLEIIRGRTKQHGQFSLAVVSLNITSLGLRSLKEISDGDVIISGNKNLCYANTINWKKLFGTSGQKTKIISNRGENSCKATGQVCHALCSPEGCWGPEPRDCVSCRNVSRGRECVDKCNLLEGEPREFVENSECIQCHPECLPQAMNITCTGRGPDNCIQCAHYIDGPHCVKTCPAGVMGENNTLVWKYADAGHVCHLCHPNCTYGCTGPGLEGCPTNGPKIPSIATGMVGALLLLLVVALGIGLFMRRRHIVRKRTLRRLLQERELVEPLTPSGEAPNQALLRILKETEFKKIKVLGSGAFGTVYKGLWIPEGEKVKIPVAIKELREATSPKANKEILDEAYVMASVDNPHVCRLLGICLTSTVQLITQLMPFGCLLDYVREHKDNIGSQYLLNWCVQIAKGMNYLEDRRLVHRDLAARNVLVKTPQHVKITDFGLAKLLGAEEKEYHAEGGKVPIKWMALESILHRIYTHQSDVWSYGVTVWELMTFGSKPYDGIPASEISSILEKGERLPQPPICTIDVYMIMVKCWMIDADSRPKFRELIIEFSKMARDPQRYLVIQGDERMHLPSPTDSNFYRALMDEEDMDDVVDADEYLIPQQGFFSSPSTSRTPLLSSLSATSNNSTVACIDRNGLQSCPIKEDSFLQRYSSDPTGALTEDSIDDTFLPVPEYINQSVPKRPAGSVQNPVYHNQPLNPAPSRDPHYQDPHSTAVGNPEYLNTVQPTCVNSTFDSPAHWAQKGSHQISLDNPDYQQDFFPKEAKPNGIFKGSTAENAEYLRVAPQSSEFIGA

[3] = Toxicity in nude mouse allografted with mouse BaF3 cells assessed as lesion in spleen at 50 mg/kg, po for 7 days by H and E staining based analysis; assay type: organism-based; details: in vivo, 168 h, time 7 day
[4] = Toxicity in nude mouse allografted with mouse BaF3 cells assessed as damage in kidney at 50 mg/kg, po for 7 days by H and E staining based analysis; assay type: organism-based; details: in vivo, 168 h, time 7 day
BaF3 [5] = assay: Induction of cell death in inner region of cell spheres of mouse BaF3 cells harboring EGFR L858R/T790M/C797S mutant at 10 nM by Calcein AM/PI staining based analysis; assay type: functional
[6] = Cytotoxicity against human HaCaT cells; assay type: toxicity, cell-based
[7] = Toxicity in nude mouse allografted with mouse BaF3 cells assessed as lesion in lung at 50 mg/kg, po for 7 days by H and E staining based analysis; assay type: organism-based; details: in vivo, 168 h, time 7 day
BaF3 [8] = assay: Induction of apoptosis in mouse BaF3 cells harboring EGFR L858R/T790M/C797S mutant assessed as increase in green fluorescence at 10 to 25 nM by TUNNEL method; assay type: functional, cell-based; details: dose 10-25 nM
NCI-H1975 [9] = assay: Induction of apoptosis in human NCI-H1975 cells assessed as viable cells at 10 nM incubated for 24 hrs by Annexin V-FITC/PI staining based flow cytometry (reference value: 91.38 %); assay type: functional; details: read-out: Activity
[10] = Cytotoxicity against human HK-2 cells; assay type: toxicity, cell-based
BaF3 [11] = assay: Antiproliferative activity against mouse BaF3 cells harboring EGFR C797S/Del19/T790M mutant; assay type: functional, cell-based
BaF3 [12] = assay: Inhibition of EGFR L858R/T790M/C797S mutant in mouse BaF3 cells assessed as reduction in ERK phosphorylation incubated for 24 hrs by Western blot analysis; assay type: cell-based; details: dose <= 100.0 nM
NCI-H1975 [13] = assay: Antiproliferative activity against human NCI-H1975 cells assessed as inhibition of sphere formation incubated for 72 hrs by CCK8 assay; assay type: functional, cell-based; details: NCI-H1975, 72 h
[14] = target: T1, Epidermal growth factor receptor (Homo sapiens, UniProt P00533); assay: Inhibition of EGFR in human NCI-H1975 cells assessed as reduction in ERK phosphorylation incubated for 24 hrs by Western blot analysis; assay type: cell-based; details: dose <= 50.0 nM
T1 sequence (P00533 whole entry): as the sequence (P00533 whole entry, looked up, stated change not applied) above

BaF3 [15] = assay: Inhibition of EGFR L858R/T790M/C797S mutant phosphorylation in mouse BaF3 cells assessed as reduction in red fluorescence incubated for 24 hrs by immunofluorescence analysis; assay type: cell-based
Homo sapiens = species: Homo sapiens; assay: Binding affinity to FGFR (unknown origin) at 100 nM by kinase profiling analysis
BaF3 [16] = assay: Induction of apoptosis in mouse BaF3 cells harboring EGFR L858R/T790M/C797S mutant assessed as necrotic cells at 10 nM incubated for 24 hrs by Annexin V-FITC/PI staining based flow cytometry (reference value: 0.06 %); assay type: functional
NCI-H1975 [17] = assay: Inhibition of fibronectin activation in human NCI-H1975 cells xenografted in nude mouse at 50 mg/kg, po for 7 days by IHC analysis; assay type: functional, organism-based; details: time 7.0 day
BaF3 [18] = assay: Antiproliferative activity against mouse BaF3 cells harboring EGFR L858R/T790M/C797S mutant assessed as inhibition of sphere formation incubated for 72 hrs by CCK8 assay; assay type: functional, cell-based; details: BaF3, 72 h
[19] = Toxicity in nude mouse allografted with mouse BaF3 cells assessed as lesion in kidney at 50 mg/kg, po for 7 days by H and E staining based analysis; assay type: organism-based; details: in vivo, 168 h, time 7 day
[20] = Toxicity in nude mouse allografted with mouse BaF3 cells assessed as lesion in liver at 50 mg/kg, po for 7 days by H and E staining based analysis; assay type: organism-based; details: in vivo, 168 h, time 7 day
[21] = target: Epidermal growth factor receptor (Homo sapiens, UniProt P00533, C797S/L858R/T790M); assay: Inhibition of EGFR C797S/T790M/L858R mutant (unknown origin)
Sequence of Epidermal growth factor receptor (Homo sapiens, UniProt P00533, C797S/L858R/T790M) (P00533 25-1210 T790M/C797S/L858R limits assumed): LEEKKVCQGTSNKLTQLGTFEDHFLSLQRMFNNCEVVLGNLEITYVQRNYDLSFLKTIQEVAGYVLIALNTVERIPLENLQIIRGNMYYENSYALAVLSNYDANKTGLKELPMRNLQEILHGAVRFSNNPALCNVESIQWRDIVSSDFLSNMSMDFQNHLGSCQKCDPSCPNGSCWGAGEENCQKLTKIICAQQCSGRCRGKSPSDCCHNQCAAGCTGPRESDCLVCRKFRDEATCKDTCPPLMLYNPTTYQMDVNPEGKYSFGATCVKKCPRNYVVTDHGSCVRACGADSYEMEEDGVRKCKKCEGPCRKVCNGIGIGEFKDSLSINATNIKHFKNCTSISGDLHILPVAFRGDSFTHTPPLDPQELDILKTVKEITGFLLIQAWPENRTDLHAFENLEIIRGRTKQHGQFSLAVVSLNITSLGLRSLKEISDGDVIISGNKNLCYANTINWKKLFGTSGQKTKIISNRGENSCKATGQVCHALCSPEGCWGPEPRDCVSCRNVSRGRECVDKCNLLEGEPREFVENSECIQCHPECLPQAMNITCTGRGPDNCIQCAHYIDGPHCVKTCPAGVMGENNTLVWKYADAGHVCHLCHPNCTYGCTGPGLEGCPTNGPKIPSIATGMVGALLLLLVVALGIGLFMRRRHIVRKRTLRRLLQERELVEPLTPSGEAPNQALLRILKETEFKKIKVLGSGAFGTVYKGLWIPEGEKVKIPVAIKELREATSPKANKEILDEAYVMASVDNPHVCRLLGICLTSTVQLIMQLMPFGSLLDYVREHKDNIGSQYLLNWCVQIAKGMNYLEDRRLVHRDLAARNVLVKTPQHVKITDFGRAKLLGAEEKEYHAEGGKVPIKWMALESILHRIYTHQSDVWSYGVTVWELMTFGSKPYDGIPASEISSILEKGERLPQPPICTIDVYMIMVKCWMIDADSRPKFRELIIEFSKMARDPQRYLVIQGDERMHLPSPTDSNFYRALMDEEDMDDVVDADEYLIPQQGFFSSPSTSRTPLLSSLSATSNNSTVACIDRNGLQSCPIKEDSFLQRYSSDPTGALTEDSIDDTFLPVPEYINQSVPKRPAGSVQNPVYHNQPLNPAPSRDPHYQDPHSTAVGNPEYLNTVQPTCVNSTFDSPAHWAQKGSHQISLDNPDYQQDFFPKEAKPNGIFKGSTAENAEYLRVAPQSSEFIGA

[22] = Toxicity in nude mouse allografted with mouse BaF3 cells assessed as lesion in heart at 50 mg/kg, po for 7 days by H and E staining based analysis; assay type: organism-based; details: in vivo, 168 h, time 7 day
[23] = Cytotoxicity against human HUVEC cells; assay type: toxicity, cell-based
BaF3 [24] = assay: Inhibition of cell migration in mouse BaF3 cells harboring EGFR L858R/T790M/C797S mutant by transwell assay; assay type: functional, cell-based
NCI-H1975 [25] = assay: Induction of apoptosis in human NCI-H1975 cells assessed as early apoptotic cells at 10 nM incubated for 24 hrs by Annexin V-FITC/PI staining based flow cytometry (reference value: 2.18 %); assay type: functional
NCI-H1975 [26] = assay: Inhibition of cell invasion in human NCI-H1975 cells by transwell assay; assay type: functional, cell-based
BaF3 [27] = assay: Inhibition of neovascularization in mouse BaF3 cells allografted in nude mouse at 50 mg/kg, po for 7 days; assay type: functional, organism-based; details: time 7.0 day
BaF3 [28] = assay: Inhibition of fibronectin activation in mouse BaF3 cells allografted in nude mouse at 50 mg/kg, po for 7 days; assay type: functional, organism-based; details: time 7.0 day
BaF3 [29] = assay: Induction of apoptosis in mouse BaF3 cells harboring EGFR L858R/T790M/C797S mutant assessed as late apoptotic cells at 10 nM incubated for 24 hrs by Annexin V-FITC/PI staining based flow cytometry (reference value: 0.02 %); assay type: functional
BaF3 [30] = assay: Antitumor activity against mouse BaF3 cells allografted in nude mouse assessed as reduction of tumor volume at 50 mg/kg, po measured after 2 to 7 days; assay type: functional, organism-based; details: time 2-7 day
BaF3 [31] = assay: Antitumor activity against mouse BaF3 cells allografted in nude mouse at 50 mg/kg, po measured for 7 days relative to control; assay type: functional; details: BaF3, 168 h, time 7 day, read-out: TGI
NCI-H1975 [32] = assay: Induction of apoptosis in human NCI-H1975 cells assessed as late apoptotic cells at 10 nM incubated for 24 hrs by Annexin V-FITC/PI staining based flow cytometry (reference value: 3.55 %); assay type: functional
[33] = target: Epidermal growth factor receptor (Homo sapiens, UniProt P00533, L858R/T790M); assay: Inhibition of EGFR T790M/L858R mutant (unknown origin)
Sequence of Epidermal growth factor receptor (Homo sapiens, UniProt P00533, L858R/T790M) (P00533 25-1210 T790M/L858R limits assumed): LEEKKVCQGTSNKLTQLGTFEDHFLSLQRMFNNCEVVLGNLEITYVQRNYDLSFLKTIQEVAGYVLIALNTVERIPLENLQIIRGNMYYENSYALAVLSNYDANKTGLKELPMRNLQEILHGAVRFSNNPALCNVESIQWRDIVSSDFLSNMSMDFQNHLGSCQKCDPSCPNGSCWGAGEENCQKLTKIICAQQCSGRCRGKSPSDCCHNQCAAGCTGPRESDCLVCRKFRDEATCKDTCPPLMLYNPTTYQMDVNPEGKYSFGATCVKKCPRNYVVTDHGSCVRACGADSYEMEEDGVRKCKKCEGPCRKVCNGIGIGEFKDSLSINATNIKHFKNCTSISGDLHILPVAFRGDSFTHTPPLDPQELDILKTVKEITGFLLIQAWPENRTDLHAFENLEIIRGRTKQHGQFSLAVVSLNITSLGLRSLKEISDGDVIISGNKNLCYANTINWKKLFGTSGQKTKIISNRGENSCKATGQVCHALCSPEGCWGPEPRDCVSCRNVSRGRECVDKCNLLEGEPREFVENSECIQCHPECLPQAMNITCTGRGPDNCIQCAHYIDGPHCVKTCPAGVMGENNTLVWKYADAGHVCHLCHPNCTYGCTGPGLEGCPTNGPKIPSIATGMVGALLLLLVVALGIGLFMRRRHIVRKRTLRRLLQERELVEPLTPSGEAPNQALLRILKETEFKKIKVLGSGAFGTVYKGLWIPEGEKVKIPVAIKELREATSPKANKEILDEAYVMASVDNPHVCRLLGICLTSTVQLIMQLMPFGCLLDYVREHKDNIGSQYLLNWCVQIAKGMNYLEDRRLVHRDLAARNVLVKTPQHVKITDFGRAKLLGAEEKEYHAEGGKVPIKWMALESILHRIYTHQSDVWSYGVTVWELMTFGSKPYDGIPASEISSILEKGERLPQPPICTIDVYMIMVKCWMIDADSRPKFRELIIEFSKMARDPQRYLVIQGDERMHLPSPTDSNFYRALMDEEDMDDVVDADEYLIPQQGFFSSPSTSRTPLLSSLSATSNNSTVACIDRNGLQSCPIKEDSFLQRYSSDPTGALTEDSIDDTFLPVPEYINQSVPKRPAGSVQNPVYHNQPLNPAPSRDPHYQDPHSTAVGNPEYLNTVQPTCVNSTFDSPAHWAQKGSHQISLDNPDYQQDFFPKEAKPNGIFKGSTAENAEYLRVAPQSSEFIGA

BaF3 [34] = assay: Inhibition of colony formation in mouse BaF3 cells harboring EGFR L858R/T790M/C797S mutant at 5 to 10 nM by crystal violet staining based analysis; assay type: functional, cell-based; details: dose 5-10 nM
[35] = Toxicity in nude mouse allografted with mouse BaF3 cells assessed as damage in liver at 50 mg/kg, po for 7 days by H and E staining based analysis; assay type: organism-based; details: in vivo, 168 h, time 7 day
[36] = Toxicity in nude mouse xenografted with human NCI-H1975 cells assessed as body weight loss at 50 mg/kg, po measured for 7 days; assay type: organism-based; details: in vivo, 168 h, time 7 day
[37] = Cytotoxicity against human L02 cells; assay type: toxicity, cell-based
[38] = target: T1, Epidermal growth factor receptor; assay: Inhibition of wild-type EGFR (unknown origin)
[39] = Toxicity in nude mouse allografted with mouse BaF3 cells assessed as body weight loss at 50 mg/kg, po measured for 7 days; assay type: organism-based; details: in vivo, 168 h, time 7 day

SMILES: CN1CCCN(c2ccc(Nc3ncc(Br)c(Nc4ccccc4NS(=O)(=O)C4CC4)n3)cc2)CC1
- inhibition (BaF3 [1]): Active
- IC50 [2]: 0.42 nM
- Activity [3]: Non-Toxic
- Activity [4]: Non-Toxic
- Activity (BaF3 [5]): Active
- IC50 [6]: 5410 nM
- Activity [7]: Non-Toxic
- Activity (BaF3 [8]): Active
- viability at 0.01 µM (NCI-H1975 [9]): 77.3%
- IC50 [10]: 2780 nM
- IC50 (BaF3 [11]): 3 nM
- inhibition (BaF3 [12]): Dose-Dependent Effect
- IC50 (NCI-H1975 [13]): 33.8 nM
- inhibition [14]: Dose-Dependent Effect
- inhibition (BaF3 [15]): Active
- Activity (Homo sapiens): Active
- Activity (BaF3 [16]): 0.48%
- inhibition (NCI-H1975 [17]): Active
- IC50 (BaF3 [18]): 11.2 nM
- Activity [19]: Non-Toxic
- Activity [20]: Non-Toxic
- IC50 [21]: 0.61 nM
- Activity [22]: Non-Toxic
- IC50 [23]: 2520 nM
- inhibition (BaF3 [24]): Active
- Activity (NCI-H1975 [25]): 13.31%
- inhibition (NCI-H1975 [26]): Active
- inhibition (BaF3 [27]): Active
- inhibition (BaF3 [28]): Active
- Activity (BaF3 [29]): 69.42%
- Activity (BaF3 [30]): Active
- inhibition in vivo at 50 mg/kg (BaF3 [31]): 71.2%
- Activity (NCI-H1975 [32]): 6.42%
- IC50 [33]: 4.76 nM
- inhibition (BaF3 [34]): Active
- Activity [35]: Non-Toxic
- Activity [36]: Non-Toxic
- IC50 [37]: 4350 nM
- IC50 [38]: 70.7 nM
- Activity [39]: Non-Toxic
